Test results reported in patent US20210255193A1, “LYSINE REACTIVE PROBES AND USES THEREOF” (The Scripps Research Institute, priority 2017, published 2021).

Columns and labels:
[1] = target: T1, SPAST Spastin (Homo sapiens, UniProt Q9UBP0); test: competitive isoTOP-ABPP; format: binding; conditions: for isoTOP-ABPP ratio (R) at liganded lysine Q9UBP0_K180 / R value (DMSO/fragment) for probe 1 labeling / isoTOP-ABPP reactivity ratio at lysine Q9UBP0_K180: 50 uM, in vitro; for isoTOP-ABPP ratio (R) at liganded lysine Q9UBP0_K180: sol, 231; for R value (DMSO/fragment) for probe 1 labeling: Q9UBP0_K180; for R value (DMSO/fragment) for probe 1 labeling / isoTOP-ABPP reactivity ratio at lysine Q9UBP0_K180: 231 sol
T1 construct: endogenous in cells; host or cells: MDA-MB-231 lysate
T1 sequence (Q9UBP0 1-616): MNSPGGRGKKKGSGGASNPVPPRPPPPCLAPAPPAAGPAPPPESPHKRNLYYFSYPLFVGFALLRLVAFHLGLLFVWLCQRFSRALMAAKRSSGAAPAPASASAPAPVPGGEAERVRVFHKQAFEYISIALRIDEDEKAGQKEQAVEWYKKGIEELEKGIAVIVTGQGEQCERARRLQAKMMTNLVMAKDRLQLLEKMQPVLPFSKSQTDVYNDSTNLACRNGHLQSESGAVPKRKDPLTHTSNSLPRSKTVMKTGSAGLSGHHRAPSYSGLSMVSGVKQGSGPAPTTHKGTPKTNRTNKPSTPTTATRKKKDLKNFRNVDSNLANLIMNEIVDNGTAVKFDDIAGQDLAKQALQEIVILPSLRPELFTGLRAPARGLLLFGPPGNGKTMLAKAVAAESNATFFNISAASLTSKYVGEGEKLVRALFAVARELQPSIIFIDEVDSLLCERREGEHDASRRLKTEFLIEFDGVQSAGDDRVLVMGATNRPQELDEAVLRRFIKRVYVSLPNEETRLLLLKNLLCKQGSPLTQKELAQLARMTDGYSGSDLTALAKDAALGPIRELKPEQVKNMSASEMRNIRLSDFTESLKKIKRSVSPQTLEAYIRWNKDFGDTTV
Method in brief: (§1)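 Fragments at 50 μM (activated esters) or 100 μM (guanidinylating agents) were incubated with 0.5 ml lysate before probe labeling. After 0.1 mM STP-alkyne for 1 h, samples were clicked to isotopically distinct TEV tags, and R taken as DMSO-over-compound MS1 peak-area ratio.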

[2] = target: T2, FH Fumarate hydratase, mitochondrial (Homo sapiens, UniProt P07954); test: competitive isoTOP-ABPP; format: binding; conditions: for isoTOP-ABPP reactivity ratio at lysine P07954_K311 / isoTOP-ABPP ratio (R) at liganded lysine P07954_K311 / R value (DMSO/fragment) for probe 1 labeling: 50 uM, in vitro; for isoTOP-ABPP reactivity ratio at lysine P07954_K311 / R value (DMSO/fragment) for probe 1 labeling: 231 sol; for isoTOP-ABPP ratio, lysine P07954_K311: 50 uM_231_sol_in vitro; for isoTOP-ABPP ratio (R) at liganded lysine P07954_K311: sol, 231; for R value (DMSO/fragment) for probe 1 labeling: P07954_K311
T2 construct: isoTOP-ABPP experiments performed in cell lysates (in vitro); endogenous in cells; host or cells: MDA-MB-231 soluble lysate
T2 sequence (P07954 45-510): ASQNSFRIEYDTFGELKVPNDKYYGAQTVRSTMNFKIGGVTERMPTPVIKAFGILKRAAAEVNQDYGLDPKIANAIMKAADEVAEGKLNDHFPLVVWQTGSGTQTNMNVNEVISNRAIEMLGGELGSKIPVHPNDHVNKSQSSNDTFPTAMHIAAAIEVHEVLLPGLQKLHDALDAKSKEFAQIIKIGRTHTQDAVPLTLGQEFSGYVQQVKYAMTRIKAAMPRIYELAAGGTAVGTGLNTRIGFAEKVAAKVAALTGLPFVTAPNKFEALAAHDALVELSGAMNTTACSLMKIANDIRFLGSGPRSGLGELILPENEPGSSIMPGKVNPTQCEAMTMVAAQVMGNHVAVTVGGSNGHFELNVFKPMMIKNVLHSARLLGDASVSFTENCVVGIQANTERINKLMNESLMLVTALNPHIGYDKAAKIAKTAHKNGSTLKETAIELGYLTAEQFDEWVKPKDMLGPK
Method in brief: as §1

## O=C(Oc1ccc([N+](=O)[O-])cc1[N+](=O)[O-])C(c1ccccc1)(c1ccccc1)c1ccccc1 [fragment 42, 2,4-Dinitrophenyl 2,2,2-triphenylacetate]
[1]
  isoTOP-ABPP ratio (R) at liganded lysine Q9UBP0_K180: 1.0

## O=C(CCc1coc2cc(F)ccc2c1=O)Oc1c(F)c(F)c(F)c(F)c1F [fragment 26, Pentafluorophenyl 3-(7-fluoro-4-oxo-4H-chromen-3-yl)propanoate]
[2]
  isoTOP-ABPP reactivity ratio at lysine P07954_K311: 2.4

## Cn1cc(CC(=O)Oc2c(F)c(F)c(F)c(F)c2F)c2ccccc21 [fragment 22, Pentafluorophenyl 2-(1-methyl-1H-indol-3-yl)acetate]
[1]
  R value (DMSO/fragment) for probe 1 labeling: 1.0

## O=C(Oc1c(F)c(F)c(C(F)(F)F)c(F)c1F)c1cc(C(F)(F)F)cc(C(F)(F)F)c1 [fragment 47, 2,3,5,6-Tetrafluoro-4-(trifluoromethyl)phenyl 3,5-bis(trifluoromethyl)benzoate]
[2]
  isoTOP-ABPP ratio, lysine P07954_K311: 1.4

## O=C(CC12CC3CC(CC(C3)C1)C2)Oc1ccc([N+](=O)[O-])cc1[N+](=O)[O-] [fragment 38, 2,4-Dinitrophenyl 2-(adamantan-1-yl)acetate]
[1]
  isoTOP-ABPP ratio (R) at liganded lysine Q9UBP0_K180: 2.1

## O=C(ON1C(=O)CCC1=O)c1cc(C(F)(F)F)cc(C(F)(F)F)c1 [fragment 46, 3,5-Bis(trifluoromethyl)benzoic acid NHS ester]
[1]; 50 uM_231_sol_in vitro
  isoTOP-ABPP ratio, lysine Q9UBP0_K180: 4.4

## NC(=O)c1cc(C(F)(F)F)cc(C(F)(F)F)c1 [fragment 51, reference compound]
[2]
  isoTOP-ABPP ratio, lysine P07954_K311: 1.0

## O=C(CN1C(=O)c2ccccc2C1=O)Oc1c(F)c(F)c(F)c(F)c1F [fragment 27, Pentafluorophenyl 2-(1,3-dioxoisoindolin-2-yl)acetate]
[1]
  isoTOP-ABPP reactivity ratio at lysine Q9UBP0_K180: 2.1

## O=C(CCc1cn(-c2ccccc2)nc1-c1ccccc1)Oc1c(F)c(F)c(F)c(F)c1F [fragment 19, Pentafluorophenyl 3-(1,3-diphenyl-1H-pyrazol-4-yl)propanoate]
[1]
  R value (DMSO/fragment) for probe 1 labeling: 1.3

## COc1cc(CCC(=O)Oc2ccc([N+](=O)[O-])cc2[N+](=O)[O-])cc(OC)c1OC [fragment 33, 2,4-Dinitrophenyl 3-(3,4,5-trimethoxyphenyl)propanoate]
[2]
  isoTOP-ABPP reactivity ratio at lysine P07954_K311: 2.2
[1]
  isoTOP-ABPP reactivity ratio at lysine Q9UBP0_K180: 0.7

## O=C(Oc1ccc([N+](=O)[O-])cc1[N+](=O)[O-])C(c1ccccc1)c1ccccc1 [fragment 30, 2,4-Dinitrophenyl 2,2-diphenylacetate]
[2]
  isoTOP-ABPP reactivity ratio at lysine P07954_K311: 5.2

## O=C(Oc1ccc([N+](=O)[O-])cc1[N+](=O)[O-])c1cc(C(F)(F)F)cc(C(F)(F)F)c1 [fragment 31, 2,4-Dinitrophenyl 3,5-bis(trifluoromethyl)benzoate]
[2]
  isoTOP-ABPP reactivity ratio at lysine P07954_K311: 1.4
[1]
  isoTOP-ABPP reactivity ratio at lysine Q9UBP0_K180: 1.1

## O=C(CCc1cn(-c2ccccc2)nc1-c1ccccc1)Oc1ccc([N+](=O)[O-])cc1[N+](=O)[O-] [fragment 29, 2,4-Dinitrophenyl 3-(1,3-diphenyl-1H-pyrazol-4-yl)propanoate]
[1]
  isoTOP-ABPP reactivity ratio at lysine Q9UBP0_K180: 1.2

## CC(=O)Oc1ccc([N+](=O)[O-])cc1[N+](=O)[O-] [fragment 43, 2,4-Dinitrophenyl acetate]
[1]
  isoTOP-ABPP ratio (R) at liganded lysine Q9UBP0_K180: 2.7

## CC(C)(C)OC(=O)N=C(NC(=O)OC(C)(C)C)n1cccn1 [fragment 50, reference compound]
[1]; 100 uM_231_sol_in vitro
  isoTOP-ABPP ratio, lysine Q9UBP0_K180: 2.0

## O=C(Oc1ccc([N+](=O)[O-])cc1[N+](=O)[O-])c1ccc(-c2ccccc2)cc1 [fragment 37, 2,4-Dinitrophenyl [1,1′-biphenyl]-4-carboxylate]
[2]
  isoTOP-ABPP ratio (R) at liganded lysine P07954_K311: 1.2
[1]
  isoTOP-ABPP ratio (R) at liganded lysine Q9UBP0_K180: 1.1

## O=C(CCc1ccc2c(c1)OCO2)Oc1ccc([N+](=O)[O-])cc1[N+](=O)[O-] [fragment 45, 2,4-Dinitrophenyl 3-(benzo[d][1,3]dioxol-5-yl)propanoate]
[2]
  isoTOP-ABPP ratio, lysine P07954_K311: 1.8
[1]; 50 uM_231_sol_in vitro
  isoTOP-ABPP ratio, lysine Q9UBP0_K180: 1.7

## O=C(Oc1c(F)c(F)c(F)c(F)c1F)C(c1ccccc1)c1ccccc1 [fragment 20, Pentafluorophenyl 2,2-diphenylacetate]
[2]
  R value (DMSO/fragment) for probe 1 labeling: 1.2
[1]
  R value (DMSO/fragment) for probe 1 labeling: 1.2

## CCn1cc(C(=O)Oc2c(F)c(F)c(F)c(F)c2F)c(=O)c2ccc(C)nc21 [fragment 28, Pentafluorophenyl 1-ethyl-7-methyl-4-oxo-1,4-dihydro-1,8-naphthyridine-3-carboxylate]
[1]
  isoTOP-ABPP reactivity ratio at lysine Q9UBP0_K180: 1.0

## O=C(Oc1c(F)c(F)c(F)c(F)c1F)c1cc(C(F)(F)F)cc(C(F)(F)F)c1 [fragment 21, Pentafluorophenyl 3,5-bis(trifluoromethyl)benzoate]
[2]
  R value (DMSO/fragment) for probe 1 labeling: 1.3
[1]
  R value (DMSO/fragment) for probe 1 labeling: 1.8

## CC(C)(C)OC(=O)NCCCC(=O)Oc1ccc([N+](=O)[O-])cc1[N+](=O)[O-] [fragment 41, 2,4-Dinitrophenyl 4-((tert-butoxycarbonyl)amino)butanoate]
[2]
  isoTOP-ABPP ratio (R) at liganded lysine P07954_K311: 1.0
[1]
  isoTOP-ABPP ratio (R) at liganded lysine Q9UBP0_K180: 1.4

## O=C(Oc1c(F)c(F)c(F)c(F)c1F)C1CCN(C(=O)OCc2ccccc2)CC1 [fragment 24, 1-Benzyl 4-(pentafluorophenyl) piperidine-1,4-dicarboxylate]
[1]
  isoTOP-ABPP reactivity ratio at lysine Q9UBP0_K180: 1.1

## O=C(Oc1c(F)c(F)c(F)c(F)c1F)c1ccc2ccccc2n1 [fragment 25, Pentafluorophenyl quinoline-2-carboxylate]
[1]
  isoTOP-ABPP reactivity ratio at lysine Q9UBP0_K180: 1.2

## Cn1cc(CC(=O)Oc2ccc([N+](=O)[O-])cc2[N+](=O)[O-])c2ccccc21 [fragment 32, 2,4-Dinitrophenyl 2-(1-methyl-1H-indol-3-yl)acetate]
[1]
  isoTOP-ABPP reactivity ratio at lysine Q9UBP0_K180: 2.5

## COc1cc(CCC(=O)Oc2c(F)c(F)c(F)c(F)c2F)cc(OC)c1OC [fragment 23, Pentafluorophenyl 3-(3,4,5-trimethoxyphenyl)propanoate]
[2]
  R value (DMSO/fragment) for probe 1 labeling: 2.6

## O=C(Oc1ccc([N+](=O)[O-])cc1[N+](=O)[O-])c1ccc(Oc2ccccc2)cc1 [fragment 39, 2,4-Dinitrophenyl 4-phenoxybenzoate]
[2]
  isoTOP-ABPP ratio (R) at liganded lysine P07954_K311: 0.9
[1]
  isoTOP-ABPP ratio (R) at liganded lysine Q9UBP0_K180: 1.4
